Source: US6908926B1, “Substituted imidazoles, their preparation and use” (Novo Nordisk A/S, priority 1999, dated 2005)

Row | SMILES | melting point [°C]
1 | COc1cccc(COC(=O)N2CCc3[nH]cnc3C2)c1.O=C(O)C(=O)O [Example 19, 4,5,6,7-Tetrahydroimidazo[4,5-c]pyridine-5-carboxylic Acid 3-methoxybenzyl Ester Oxalate] | 163 to 165
2 | Cc1cccc(COC(=O)N2CCc3[nH]cnc3C2)c1.O=C(O)C(=O)O [Example 21, 4,5,6,7-Tetrahydroimidazo[4,5-c]pyridine-5-carboxylic Acid 3-methylbenzyl Ester Oxalate] | 169 to 171
3 | Cc1cccc(CCOC(=O)N2CCc3[nH]cnc3C2)c1.O=C(O)C(=O)O [Example 24, 4,5,6,7-Tetrahydroimidazo[4,5-c]pyridine-5-carboxylic Acid 2-(3-methylphenyl)ethyl Ester Oxalate] | 155 to 157
4 | Cc1ccc(COC(=O)N2CCc3[nH]cnc3C2)c(C)c1.O=C(O)C(=O)O [Example 28, 4,5,6,7-Tetrahydroimidazo[4,5-c]pyridine-5-carboxylic Acid 2,4-dimethylbenzyl Ester Oxalate] | 176 to 178
5 | CC(C)c1ccc(COC(=O)N2CCc3nc[nH]c3C2)cc1.O=C(O)C(=O)O [Example 31, 4,5,6,7-Tetrahydroimidazo[4,5-c]pyridine-5-carboxylic Acid 4-isopropylbenzyl Ester Oxalate] | 166 to 168
6 | CCc1ccc(COC(=O)N2CCc3nc[nH]c3C2)cc1.O=C(O)C(=O)O [Example 34, 4,5,6,7-Tetrahydroimidazo[4,5-c]pyridine-5-carboxylic Acid 4-ethylbenzyl Ester Oxalate] | 171 to 173
7 | O=C(O)C(=O)O.O=C(OCCc1cccs1)N1CCc2nc[nH]c2C1 [Example 36, 4,5,6,7-Tetrahydroimidazo[4,5-c]pyridine-5-carboxylic Acid 2-thiophen-2-ylethyl Ester Oxalate] | 173 to 175
8 | O=C(O)C(=O)O.O=C(OCCc1ccsc1)N1CCc2nc[nH]c2C1 [Example 37, 4,5,6,7-Tetrahydroimidazo[4,5-c]pyridine-5-carboxylic Acid 2-thiophen-3-ylethyl Ester Oxalate] | 193 to 194
9 | O=C(O)C(=O)O.O=C(OCCC1CCCCC1)N1CCc2nc[nH]c2C1 [Example 40, 4,5,6,7-Tetrahydroimidazo[4,5-c]pyridine-5-carboxylic Acid 2-cyclohexylethyl Ester Oxalate] | 174 to 176
10 | O=C(O)C(=O)O.O=C(OCC1CCCCC1)N1CCc2nc[nH]c2C1 [Example 41, 4,5,6,7-Tetrahydroimidazo[4,5-c]pyridine-5-carboxylic Acid Cyclohexylmethyl Ester Oxalate] | 176 to 178
11 | O=C(O)C(=O)O.O=C(OCc1ccccc1Cl)N1CCc2nc[nH]c2C1 [Example 42, 4,5,6,7-Tetrahydroimidazo[4,5-c]pyridine-5-carboxylic Acid 2-chlorobenzyl Ester Oxalate] | 173 to 175
